Laboratory results from patent US20210205322A1, “RICTOR-TARGETED THERAPY IN THE MANAGEMENT OF BRAIN METASTASES” (Albert Einstein College of Medicine, priority 2020, published 2021).
“Also recorded” adds a separate entry of the source.

What was measured:
[1] = test system: lung cancer cell; test: SDF-1α-induced invasion and migration (CXCR4 pathway); assay type: cell-based
Description: (§1) In vitro Cell Migration and Invasion Assay: The transwell assay was performed according to manufacturer's protocol (Corning, N.Y.). Briefly, the cells were starved for 24 hours and then seeded on the transwell insert (Corning, N.Y.) in 12-well plates. The bottom of the well contained medium with 10% FBS. After 24 hours, the bottom of the inserts were fixed with 70% ethanol and stained with 0.5% crystal violet. The cells were counted triplicate under microscope.
(§2) In the invasion assay, matrigel (0.8 mg/ml) layer was added on the transwell insert first. After the matrigel layer was solidified, the experiment was performed in the same way as the migration assay.

[2] = test system: lung cancer cell; test: Invasion and migration with AKT inhibitors; assay type: cell-based; details: for invasion and migration: AKT inhibitor added to inducible RICTOR knockdown; for lung cancer cell invasion and migration: AKT inhibitor alone, FIG. 10A-E
Description: as §1, §2
(§3) AKT is a downstream effector of the RICTOR-mTOCR2 pathway, to determine its role in RICTOR-mediated metastasis, the effects of two structurally different AKT inhibitors, AR-42 and ipatasertib were inestigated.

[3] = test system: lung cancer cell; test: Cell proliferation with AKT inhibitors; assay type: cell-based; details: 24-hour treatment
Description: as §3

[4] = test system: lung cancer cell; test: Apoptosis (cleaved PARP) with AKT inhibitors; assay type: cell-based; details: for apoptosis: AKT inhibitor added to inducible RICTOR knockdown; for apoptosis (cleaved PARP): AKT inhibitor alone
Description: (§4) Immunoblotting and Antibodies: All antibodies were purchased from Cell Signaling Technology (Boston, Mass.). Cell lysate was harvested using RIPA buffer and the supernatant was subjected for following steps after centrifugation. Proteins were subjected to 10% SDS-PAGE gel and transferred onto […] nitrocellulose membrane (Biorad, Calif., USA) for western blot analysis. After incubation with primary antibody overnight at 4° C., the membrane was washed and incubated with secondary antibodies. The final blots were developed with a chemiluminesence system (Promega, Wis., USA).
as §3

[5] = test system: RICTOR-amplified H23 lung cancer cells; test: Transwell cell migration and invasion assay in H23 cells; assay type: cell-based; details: in vitro; FIG. 7C
Description: as §1, §2

[6] = test system: RICTOR-amplified H1703 lung cancer cells; test: Transwell cell migration and invasion assay in H1703 cells; assay type: cell-based; details: in vitro; FIG. 7C
Description: as §1, §2

[7] = test system: H23 lung cancer cells labeled with luciferase reporter gene; test: In vivo metastasis assay, stereotactic brain injection model; design: species or system mouse
Description: To further test whether RICTOR amplification affects in vivo metastasis, either the inducible H23-R4 or the parental H23 lung cancer cells labeled with luciferase reporter gene (H23-R4-Luc) were implanted in mouse brain stereotactically.

[8] = test system: HCC827 OE cells; test: Transwell cell migration and invasion assay in HCC827 OE cells; assay type: cell-based; details: migration and invasion promoted by RICTOR upregulation (doxycycline)
Description: as §1, §2

[9] = test system: PC9 parental cells; test: Cell growth assay, combined treatment of sapanisertib and EGFR TKIs; details: sapanisertib 5 nM combined with erlotinib, afatinib or osimertinib; FIG. 3C
Description: Clonogenic Survival Assay: Logarithmically growing cells were plated in triplicate. All drugs were added for 72 hours and withdrawn afterwards. After 10-14 days, colonies were fixed with 70% EtOH and stained with 0.5% crystal violet (Sigma Aldrich, St Louis, Mo.). Surviving colonies were defined as colonies containing >50 cells.

[10] = test system: PC9-R4; test: Drug response by clonogenic survival assay in inducible RICTOR knockdown PC9-R4 cells; assay type: cell-based; details: for inhibitory effects on cell proliferation: RICTOR knockdown cells vs no knockdown
[11] = test system: ER cells; test: ER mouse tumor xenograft model; assay type: in vivo, mice
Description: Xenograft Mouse Studies: Athymic mice (Envigo Laboratory, male, 6-8 weeks old) were inoculated subcutaneously with 5×10^6 NSCLC cells. After 2 days, mice were divided into a vehicle control (water) group and a doxycycline group, with 6 mice in each group. Doxycycline was administered by oral gavage: 100 mg/kg/day. The same volume of water was given to the control group. A total of 20 daily doses were administered in 4 weeks. […] Tumors were measured with calipers twice weekly and the size was calculated as length×width^2/2. The protocol was approved by the Institutional Animal Care and Use Committee.
The in vivo mouse tumor xenograft model was performed using ER cells.

[12] = test system: ER3-R4; test: Western blot analysis (c-PARP) of osimertinib-treated ER3-R4 cells; assay type: cell-based; details: osimertinib-treated cells with RICTOR knockdown; osimertinib 0.5 μM; FIG. 4D
Description: as §4
To evaluate whether RICTOR-induced Axl upregulation was a common resistant mechanism for EGFR TKIs, Axl signaling in osimertinib-treated ER3-R4 and HCC827 OE cells was examined. […] Taken together, RICTOR positively regulates EGFR TKI resistance by upregulating Axl expression, which seems to be a common resistance mechanism shared by EGFR TKIs.

[13] = test system: HCC827 OE; details: RICTOR upregulation with doxycycline; FIG. 2C
Description: Next, it was determined whether RICTOR upregulation could result in EGFR TKI resistance. A doxycycline-inducible RICTOR upregulation model in HCC827 cells (HCC827 OE) was generated.

[14] = test system: HCC827 OE cells; test: Western blot analysis (c-PARP) of osimertinib-treated HCC827 OE cells; assay type: cell-based; details: osimertinib-treated cells with RICTOR upregulation; osimertinib 50 nM; FIG. 4D
Description: Immunoblotting and Antibodies: All antibodies were purchased from Cell Signaling Technology (Boston, Mass.). Cell lysate was harvested using RIPA buffer and the supernatant was subjected for following steps after centrifugation. Proteins were subjected to 10% SDS-PAGE gel and transferred onto 0.45 μM nitrocellulose membrane (Biorad, Calif., USA) for western blot analysis. After incubation with primary antibody overnight at 4° C., the membrane was washed and incubated with secondary antibodies. The final blots were developed with a chemiluminesence system (Promega, Wis., USA).

[15] = test system: HCC827-R4
[16] = test system: erlotinib-resistant HCC827 cell line (ER); test: MTS cell viability and clonogenic survival assays in erlotinib-resistant HCC827 cells (ER); assay type: cell-based; details: Axl-overexpressed ER; FIG. 1I and 1J
Description: Cell Growth and Viability Assay: The MTS proliferation assay was performed as described in manufacture protocol (Promega, Wis., USA). Cells were seeded at a density of 2000 cells per well in 96-well plates. After incubating with drugs for 72 hours, MTS reagent was added and the absorbance was measured at 490 nm. Viable cell numbers were determined using the MTS assay kit according to the manufacturer's protocol.

## c1cc(CN2CCCNCCNCCCNCC2)ccc1CN1CCCNCCNCCCNCC1 [AMD3100]
[1]; FIG. 11B and C
  SDF-1α-induced invasion and migration: significantly reduced

## CC(C)[C@H](C(=O)Nc1ccc(C(=O)NO)cc1)c1ccccc1 [AR-42]
[2]
  invasion and migration: significantly further reduced
  lung cancer cell invasion and migration: significantly decreased
[3]
  change in cell proliferation: did not result in significant change
[4]
  apoptosis: more pronounced apoptosis
  apoptosis (cleaved PARP): increased apoptosis

## CNC(=O)c1cccc(-c2ccc3c(N4CCOC[C@@H]4C)nc(N4CCOC[C@@H]4C)nc3n2)c1 [AZD2014, 3-[2,4-bis[(3S)-3-methylmorpholin-4-yl]pyrido[2,3-d]pyrimidin-7-yl]-N-methylbenzamide]
[5]
  migration and invasion: significantly reduced
[6]
  migration and invasion: significantly reduced

## Nc1cc(C(F)(F)F)c(-c2nc(N3CCOCC3)nc(N3CCOCC3)n2)cn1 [PQR309, 5-(4,6-dimorpholin-4-yl-1,3,5-triazin-2-yl)-4-(trifluoromethyl)pyridin-2-amine]
[5]
  migration and invasion: significantly reduced
[6]
  migration and invasion: significantly reduced

## CC(C)n1nc(-c2ccc3oc(N)nc3c2)c2c(N)ncnc21 [TAK228, 5-(4-amino-1-propan-2-yl-3-pyrazolo[3,4-d]pyrimidinyl)-1,3-benzoxazol-2-amine]
[7]; P<0.01, FIG. 8B
  reduction of tumor growth in the brain: approximately 75%
[7]; after 4 weeks of daily oral lavage, 3 out 7
  near complete responses: 43%
[7]; result in words
  tumor growth in the brain: remarkably reduced the lung cancer growth in the brain; also recorded: significantly reduced tumor growth in the brain
[8]
  cell migration and invasion: inhibited
[5]
  migration and invasion: significantly reduced
[9]
  sensitivity of EGFR TKIs in combined treatment: significantly improved the sensitivity of all three inhibitors
[6]
  migration and invasion: significantly reduced

## CN(C)C/C=C/C(=O)Nc1cc2c(Nc3ccc(F)c(Cl)c3)ncnc2cc1O[C@H]1CCOC1 [afatinib]
[10]; PC-9 cells, FIG. 3B
  decrease of IC50 upon RICTOR knockdown: > 10 fold

## C#Cc1cccc(Nc2ncnc3cc(OCCOC)c(OCCOC)cc23)c1 [erlotinib]
[10]
  inhibitory effects on cell proliferation: higher inhibitory effects
[11]; combination treatment (RICTOR knockdown and erlotinib), western blot of tumor lysate, FIG. 1H
  expression of Axl in xenograft tumors: lowest expression of Axl
[11]; combined treatment (RICTOR knockdown by doxycycline and erlotinib), vs either approach alone, P<0.05
  tumor growth: markedly blocked tumor growth
[11]; erlotinib alone, four weeks of treatment, oral gavage daily
  tumor growth: failed to inhibit tumor growth

## CC(C)NC[C@@H](C(=O)N1CCN(c2ncnc3c2[C@H](C)C[C@H]3O)CC1)c1ccc(Cl)cc1 [ipatasertib]
[2]
  invasion and migration: significantly further reduced
  lung cancer cell invasion and migration: significantly decreased
[3]
  change in cell proliferation: did not result in significant change
[4]
  apoptosis: more pronounced apoptosis
  apoptosis (cleaved PARP): increased apoptosis

## C=CC(=O)Nc1cc(Nc2nccc(-c3cn(C)c4ccccc34)n2)c(OC)cc1N(C)CCN(C)C [osimertinib]
[12]
  apoptosis (c-PARP): more pronounced apoptosis
[13]
  resistance compared to parental HCC827 cells: more resistant
[14]
  apoptosis: less apoptosis
[10]
  inhibitory effects on cell proliferation: higher inhibitory effects
[15]
  decrease of IC50 upon RICTOR knockdown: > 10 fold
  inhibitory effects on cell proliferation: higher inhibitory effects
[16]
  drug response of ER: resistance to both inhibitors

## SDF-1α
[1]; activation of the CXCR4 pathway by treatment with SDF-1α
  migration and invasion: increased migration and invasion
